Read-outs that look alike come from different tables or passages of the source.
Legend:
[1] = system: HK-2 cells; assay: cells; format: cell-based, human; conditions: for IC50: Homo sapiens; for Cell viability: HK-2, 1,000 μM, 24 or 48 h
Method: Cytotoxicity analysis was determined using the Cell Counting kit 8 (CCK8) (Bioss, China). HK-2 was cultured in DMEM/F12 (containing 10% fetal bovine serum, 100 U/ml penicillin, and 100 μg/ml streptomycin; Gibco, Invitrogen) at 37°C in 5% carbon dioxide incubator. The cells were maintained at 80% confluency and the medium was replaced every 3 days for routine cultivation. HK-2 cells (8,000 cells/well) were seeded in 96-well plates overnight. The cells were then treated with analogues of AA for 24 or 48 h at different concentrations (6.8, 27.0, 54.0, 108.0, 216.0, and 432.0 μM for AA I; 12.5, 25.0, 100.0, 200.0, 400.0, and 800.0 μM for AA II; 15.6, 62.5, 125.0, 250.0, 500.0, and 1000.0 μM for AA IIIa; 15.6, 31.3, 62.5, 125.0, 500.0, and 1,000.0 μM for AA IVa; 8.0, 16.0, 32.0, 64.0, 128.0, and 256.0 μM for AL I). Subsequently, the cells were incubated with 10% CCK8 solution for another 2 h. […] The absorbance (OD) of each well was measured with a spectrophotometer (Spark; Tecan, Switzerland) at 450 nm and the IC50 values were obtained by fitting the curve through nonlinear regression with GraphPad Prism 7.0 (GraphPad Software, CA, United States).

[2] = system: hepatocyte cells of ICR mice; assay: Comet assay (DNA damage), hepatocyte cells; format: in vivo; conditions: EMS 577.6 mg/kg; for Liver Olive Tail Moment / Liver Tail DNA%: AA analogues 20.0 mg/kg, three consecutive days, 5 animals/group, 100 cells; for DNA damage in hepatocyte cells (comet shape): AA analogues 20 mg/kg, three days
Method: (§1) ICR mice were separated into seven groups (n = 5 for each group) and administrated with saline, EMS (577.6 mg/kg), AA I (20 mg/kg), AA II (20 mg/kg), AA IIIa (20 mg/kg), AA IVa (20 mg/kg), or AL I (20 mg/kg) for three consecutive days, respectively. After anesthetization and perfusion, renal and liver tissues were obtained. Comet analysis was performed 2–6 h after the last […] and the processes were according to Günter Speit ([Speit and Rothfuss, 2012]). The Comet Assay software project (CASP) (V1.2.3) was used to analyze the fraction of tail DNA and the Olive Tail Moment. A total of one hundred cells from kidney or liver tissues of each animal were analyzed. The mean, standard deviation (SD) of tail DNA%, and the median of olive tail moment were calculated. Results were analyzed using SPSS 17.0 by one-way analysis of variance (ANOVA) followed by the least significance difference (LSD) test. The significant differences between the groups were tested and defined by p-value < 0.05.
(§2) Mice (n=35) were randomly divided into seven groups, with 5 mice in each group. Then they were administered with normal saline (NS), ethyl methanesulfonate (EMS) (577.6 mg/kg), and aristolochic acid analogues (20.0 mg/kg) for three days, respectively. After the final administration, mice were perfused and euthanized to obtain the renal and liver tissues.
(§3) The removed renal and liver tissues were minced into pieces and dispersed with 10 mL DMEM high-sugar culture medium. The mixture was filtered through a 200-mesh sieve and centrifuged at 800 rpm for 5 min. The supernatant was discarded and the cells were resuspended and centrifuged again. Then the cells were cultured in DMEM containing 10% FBS.
(§4) 25 μL single-cell suspension (5000 cells) with 75 μL of 0.7% low melting point agarose gel were mixed and 100 μL of the mixture was dropped on the bottom layer of agarose gel. The prepared glass slides were stored in the refrigerator at 4℃ for 4 min, and then dipped into the alkaline cell lysates for 2 h at 4℃. Slides were removed and rinsed with PBS buffer for 3 times.
(§5) The alkaline electrophoresis buffer (pH 13.0) precooled at 4℃ was put into the electrophoresis tank. The tank was covered to avoid light and remained static at 4℃ for 20 min. The voltage was set at 0.8 V/cm, and the current was 300 mA during the electrophoreses.
(§6) After 20 min, the slides were removed and the excess salt was washed away. The slides were washed by 0.4 mol/L precooled Tris-HCl buffer for 5 min and then dehydrated by ethanol for 15 min. Then the slides were stained with 30 μL PI staining solution (2 μg/mL) in the dark for 15 s, and washed in water several times.
(§7) A fluorescence microscope was used for visualization of DNA damage. A total of 100 randomly selected cells from kidney or liver tissues were analyzed. Parameters such as tail DNA percentage and Olive Tail Moment were calculated by the Comet Assay Software Project (CASP, V1.2.3).

[3] = system: renal cells of ICR mice; assay: Comet assay (DNA damage), renal cells; format: in vivo; conditions: EMS 577.6 mg/kg; for Kidney Olive Tail Moment / Kidney Tail DNA%: AA analogues 20.0 mg/kg, three consecutive days, 5 animals/group, 100 cells; for DNA damage in renal cells (comet shape): AA analogues 20 mg/kg, three days
Method: as §1, §2, §3, §4, §5, §6, §7

[4] = system: ICR mice; assay: In vivo acute toxicity, single oral gavage dose, 14 days; conditions: for Histopathology of liver tissues: AA I 20 and 40 mg/kg; for Serum AST, ALT, ALP, TBIL, TBA, CREA, BUN vs control group: single oral dose, day 14, AA I at 20 and 40 mg/kg
Method: The animal experiments were approved by the Research Ethics Committee of the Institute of Chinese Materia Medica, China Academy of Chinese Medical Sciences (ICMM, CACMS). The experiment was carried out according to ethical guidelines and regulations for the use of laboratory animals. A total of 160 ICR mice were randomly divided into 16 groups, each comprising 10 mice (5 males and 5 females). The drugs were administered in a single dose by oral gavage and the dose volume was 0.2 ml/10 g. The control group was treated with 0.5% CMC-Na. Other groups received AA I, AA II, AA IIIa, AA IVa, or AL I, at concentrations of 10, 20, and 40 mg/kg, respectively. Animal weights were recorded every two days. The animals were fasted overnight before experiments and sacrificed on day 14. Blood samples were collected and centrifuged for 15 min at 3,500×g. AST, ALT, ALP, CREA, BUN, TBA, and TBIL levels in plasma were examined. SPSS 17.0 (IBM Corp., United States) was used for the statistical and significance analyses. The renal and liver tissues were embedded and stained with H&E. Histological images were obtained through Olympus BX63 (Olympus Corporation, Japan) at a magnification of ×200.

[5] = 10, 20 mg/kg single oral dose, 14 days
[6] = 10, 20, 40 mg/kg single oral dose, male and female mice
[7] = 10, 20, 40 mg/kg single oral dose, 14 days

COc1cccc2c1cc([N+](=O)[O-])c1c(C(=O)O)cc3c(c12)OCO3 [AA I, aristolochic acid I] was tested, and the IC50 ([1]; HK-2, 24 h) was 197 µM, the IC50 ([1]; HK-2, 48 h) was 76.7 µM and the “Liver Olive Tail Moment” value [2] was 0.88±0.14 μm. For the same compound, the “Liver Tail DNA%” value [2] was 2.92±0.54%, the “DNA damage in hepatocyte cells (comet shape)” value (shortened to “DNA damage in hepatocyte cells”) [2] was “no DNA damage” and the “Kidney Olive Tail Moment” value [3] was 7.45 ± 1.94 μm. For the same compound, the “Kidney Tail DNA%” value [3] was 15.39 ± 1.75%, the “DNA damage in renal cells (comet shape)” value [3] was “evident comet shape” and the Survival rate ([4]; 40 mg/kg single oral dose, 14 days, n = 10, deaths on days 4, 5 and 6) was 30%. The “Histopathology of renal tissues” value ([4]; 40 mg/kg, H&E) was “Significant lesions”, the Death [4, 5] was “no death” and the “Body weight change vs control group” value [4, 6] was “remarkable reduction of body weight”. For the same compound, the “Histopathology of liver tissues” value ([4]; H&E) was “no corresponding pathological changes” and the “Serum AST, ALT, ALP, TBIL, TBA, CREA, BUN vs control group” value (shortened to “Serum AST, ALT, ALP … vs control group”) [4] was “different levels of changes in serum levels of TBIL, ALP, BUN, and CREA”.

O=C(O)c1cc2c(c3c1c([N+](=O)[O-])cc1ccccc13)OCO2 [AA II, aristolochic acid II] was tested, and the IC50 ([1]; HK-2, 24 h, read-out: IC50) was greater than 800 µM, the IC50 ([1]; HK-2, 48 h, read-out: IC50) was 306 µM and the “Liver Olive Tail Moment” value [2] was 0.89±0.22 μm. The “Liver Tail DNA%” value [2] was 3.37±0.42%, the “DNA damage in hepatocyte cells” value [2] was “No DNA damage” and the “Kidney Olive Tail Moment” value [3] was 0.78±0.30 μm. The “Kidney Tail DNA%” value [3] was 3.08±0.25%, the “DNA damage in renal cells (comet shape)” value [3] was “No DNA damage” and the Nephrotoxicity or hepatotoxicity ([4]; 40 mg/kg) was “No distinct nephrotoxicity or hepatotoxicity”. The Mice died ([4]; 40 mg/kg single oral dose, n = 10, death on day 8) was 10%, the Body weight change ([4]; 40 mg/kg, male and female mice, first 10 days) was “Slight weight loss” and the Death [4, 5] was “no death”. For the same compound, the “Serum AST, ALT, ALP … vs control group” value [4] was “no significant difference”.

With O=C(O)c1cc2c(c3c1c([N+](=O)[O-])cc1ccc(O)cc13)OCO2 [AA IIIa, aristolochic acid IIIa] the Cell viability [1] was ≥ 50 % of control, the “Liver Olive Tail Moment” value [2] was 0.92±0.20 μm and the “Liver Tail DNA%” value [2] was 3.09±0.47%. For the same compound, the “DNA damage in hepatocyte cells” value [2] was “No DNA damage”, the “Kidney Olive Tail Moment” value [3] was 0.61±0.16 μm and the “Kidney Tail DNA%” value [3] was 2.60±0.69%. The “DNA damage in renal cells (comet shape)” value [3] was “No DNA damage”, the Nephrotoxicity or hepatotoxicity ([4]; 40 mg/kg) was “No distinct nephrotoxicity or hepatotoxicity” and the Death [4, 7] was “no death”. For the same compound, the “Body weight change vs control group” value [4, 6] was “no distinct changes in body weight” and the “Serum AST, ALT, ALP … vs control group” value [4] was “no significant difference”.

COc1cc(O)cc2c1cc([N+](=O)[O-])c1c(C(=O)O)cc3c(c12)OCO3 [AA IVa, aristolochic acid IVa] was tested, and the Cell viability [1] was ≥ 50 % of control, the “Liver Olive Tail Moment” value [2] was 0.81±0.14 μm and the “Liver Tail DNA%” value [2] was 2.98±0.22%. For the same compound, the “DNA damage in hepatocyte cells” value [2] was “No DNA damage”, the “Kidney Olive Tail Moment” value [3] was 0.57±0.22 μm and the “Kidney Tail DNA%” value [3] was 2.80±0.99%. The “DNA damage in renal cells (comet shape)” value [3] was “No DNA damage”, the Nephrotoxicity or hepatotoxicity ([4]; 40 mg/kg) was “No distinct nephrotoxicity or hepatotoxicity” and the Body weight change ([4]; 40 mg/kg, female mice, day 5, returned on day 7) was “drastic weight loss”. The Death [4, 7] was “no death”, the “Body weight change vs control group” value [4, 6] was “no distinct changes in body weight” and the “Serum AST, ALT, ALP … vs control group” value [4] was “no significant difference”.

With COc1cccc2c1cc1c3c(cc4c(c32)OCO4)C(=O)N1 [AL I, aristolactam I] the IC50 ([1]; HK-2, 24 h, read-out: IC50) was greater than 256 µM, the IC50 ([1]; HK-2, 48 h, read-out: IC50) was 37.1 µM and the “Liver Olive Tail Moment” value [2] was 0.74±0.29 μm. For the same compound, the “Liver Tail DNA%” value [2] was 3.26±0.52%, the “DNA damage in hepatocyte cells” value [2] was “No DNA damage” and the “Kidney Olive Tail Moment” value [3] was 0.66±0.21 μm. The “Kidney Tail DNA%” value [3] was 3.12±0.33%, the “DNA damage in renal cells (comet shape)” value [3] was “No DNA damage” and the “Serum AST, ALT, ALP activity” value ([4]; 10 mg/kg) was “decreased AST, ALT, and ALP activity”. The Nephrotoxicity or hepatotoxicity ([4]; 40 mg/kg) was “No distinct nephrotoxicity or hepatotoxicity”, the Death [4, 7] was “no death” and the “Body weight change vs control group” value [4, 6] was “no distinct changes in body weight”. For the same compound, the “Histopathology of liver tissues” value ([4]; H&E) was “No pathological changes” and the “Serum AST, ALT, ALP … vs control group” value [4] was “no significant difference”.

In the case of CCOS(C)(=O)=O [EMS, ethyl methanesulfonate, reference compound], the “Liver Olive Tail Moment” value [2] is reported as 33.60±6.11 μm, the “Liver Tail DNA%” value [2] is reported as 55.18±6.23 % and the “DNA damage in hepatocyte cells” value [2] is reported as “significant comet tailing”. The “Kidney Olive Tail Moment” value [3] was 23.01±4.09 μm, the “Kidney Tail DNA%” value [3] was 40.97±7.55 % and the “DNA damage in renal cells (comet shape)” value [3] was “significant comet tailing”.
